According to the Deep4Chem optical property database:

Assay: solvent given as SMILES

Which emission maximum (in C1CCOC1) does the source give for `CCC1(CC)c2cc(Br)ccc2-c2c1c1c(c3c2C(CC)(CC)c2cc(-c4cccs4)ccc2-3)C(CC)(CC)c2cc(Br)ccc2-1` here?
The emission maximum was 371 nm.

Which results are given for `CCn1c2ccccc2c2cc(/C=C/C(=O)c3ccc4c(c3)c3cc(C(=O)/C=C/c5ccc6c(c5)c5ccccc5n6CC)ccc3n4CC)ccc21`?
emission maximum (in C1CCCCC1): 430 nm; emission maximum (in C1CCOC1): 474 nm; emission maximum (in CC#N): 491 nm; emission maximum (in CC(C)=O): 476 nm; emission maximum (in CCO): 521 nm; emission maximum (in CCOCC): 475 nm; emission maximum (in CN(C)C=O): 487 nm; emission maximum (in CO): 542 nm; emission maximum (in CS(C)=O): 493 nm; emission maximum (in ClC(Cl)(Cl)Cl): 454 nm; emission maximum (in ClC(Cl)Cl): 475 nm

Which emission maximum (in ClCCl) does the source give for `C(=C\c1ncc(-c2ccc(OCc3ccccc3)c(OCc3ccccc3)c2)o1)/c1cccc(N2CCN(c3ccccc3)CC2)c1` here?
Its emission maximum is 500 nm.

For `CCNc1cc2oc(=O)cc(C)c2cc1C`, which emission maximum (in CC#N) is on record?
Its emission maximum is 420 nm.

With `CCC1=C(C)C2=C(c3cc(C(=O)Cl)cc(C4=C5C(C)=C(CC)C(C)=[N+]5[B-](F)(F)n5c(C)c(CC)c(C)c54)c3)c3c(C)c(CC)c(C)n3[B-](F)(F)[N+]2=C1C` as the compound, how does the emission maximum (in C1CCOC1) read?
Its emission maximum is 549 nm.

What about the emission maximum (in CC#N) of the same compound?
The emission maximum was 548 nm.

And the emission maximum (in CN(C)C=O)?
The emission maximum was 560 nm.

And the emission maximum (in Cc1ccccc1)?
The emission maximum was 562 nm.

What about the emission maximum (in ClC(Cl)Cl) of the same compound?
The emission maximum was 562 nm.

Which emission maximum (in ClCCl) does the source give for `Cc1cccc2nc(-c3ccc(-c4cc(=O)cc(-c5ccccc5)o4)cc3)c(NC3CCCCC3)n12` here?
Its emission maximum is 506 nm.

For `Fc1ccc(-c2cccc3ncc(-c4ccccc4)n23)cc1`, which emission maximum (in ClCCl) is on record?
Its emission maximum is 469 nm.

Which emission maximum (in ClC(Cl)Cl) does the source give for `COc1ccc2cc(C3=[N+]4C(=Nc5c(-c6ccccc6)cc(-c6ccc7cc(OC)ccc7c6)n5[B-]4(F)F)C(c4ccccc4)=C3)ccc2c1` here?
Its emission maximum is 733 nm.

What about the emission maximum (in ClCCl) of the same compound?
Its emission maximum is 733 nm.

For `Fc1ccc(C2=NC(c3ccccc3)C(N(c3ccccc3)c3ccccc3)S2)cc1` (stereo unspecified), which emission maximum (in ClC(Cl)Cl) is on record?
Its emission maximum is 461 nm.

For `CCCCCCCCOc1ccc(C2=C3C(C)=CC(C)=[N+]3[B-](F)(F)n3c(C)cc(C)c32)cc1`, which emission maximum (in ClCCl) is on record?
Its emission maximum is 513 nm.

With `CCN(CC)c1ccc(-c2nc3c(nc2-c2ccc([B-](F)(c4c(C)cc(C)cc4C)c4c(C)cc(C)cc4C)cc2)c2ccccc2n3C)cc1` as the compound, how does the emission maximum (in C1CCOC1) read?
Its emission maximum is 497.22 nm.

With `CC(C)(C)c1ccc2c(c1)c1cc(C(C)(C)C)cc3c1n2B1c2c-3cccc2-c2cc(C(C)(C)C)cc3c4cc(C(C)(C)C)ccc4n1c23` as the compound, how does the emission maximum (in C1CCOC1) read?
The emission maximum was 384 nm.

With `CC(C)(C)c1ccc(C2=CC(c3ccccc3)=[N+]3C2=Nc2c(-c4ccc(C(C)(C)C)cc4)cc(-c4ccccc4)n2[B-]3(F)F)cc1` as the compound, how does the emission maximum (in C1CCOC1) read?
Its emission maximum is 681 nm.

What about the emission maximum (in Cc1ccccc1) of the same compound?
The emission maximum was 683 nm.

And the emission maximum (in ClC(Cl)Cl)?
The emission maximum was 680 nm.

With `CCCCCCCCCc1c2ccccc2cc2c1oc1c3c(c4ccccc4c12)-c1c(c2oc4cc5ccccc5cc4c2c2ccccc12)OCO3` as the compound, how does the emission maximum (in C1CCOC1) read?
Its emission maximum is 416 nm.

For `CC(C)(C)c1ccc2c(c1)Cc1cc(C(C)(C)C)ccc1-2`, which emission maximum (in C1CCCCC1) is on record?
The emission maximum was 348 nm.

For `CCc1cccc(CC)c1-c1c2ccccc2c(-c2c(CC)cccc2CC)c2cc3ccccc3cc12`, which emission maximum (in ClCCl) is on record?
Its emission maximum is 501 nm.

Which emission maximum (in ClC(Cl)Cl) does the source give for `O=C1OC(=O)[C@H]2[C@@H]1[C@@H]1C[C@H]2c2c1c(-c1ccccc1)c1ccccc1c2-c1ccccc1` here?
The emission maximum was 362 nm.

For `CCN(CC)c1ccc(/C=N/C2CCCCC2/N=C/c2ccc(N(CC)CC)cc2O)c(O)c1` (stereo unspecified), which emission maximum (in CC#N) is on record?
The emission maximum was 426 nm.

And the emission maximum (in CN(C)C=O)?
Its emission maximum is 432 nm.

And the emission maximum (in ClCCl)?
The emission maximum was 461 nm.

With `CCN(CC)c1ccc(/C=C/c2cc(/C=C/c3ccc(N(CC)CC)cc3)nc(N)n2)cc1` as the compound, how does the emission maximum (in Cc1ccccc1) read?
The emission maximum was 468 nm.

And the emission maximum (in ClC(Cl)Cl)?
The emission maximum was 518 nm.

Which emission maximum (in CO) does the source give for `N#Cc1c(-n2nnc3ccccc32)n([C@H]2C[C@H](O)[C@@H](CO)O2)c2ncnc(N)c12` here?
Its emission maximum is 416 nm.

Which emission maximum (in C1CCOC1) does the source give for `CCOc1cc2c(cc1/C=C/C1=CC(=C(C#N)C#N)CC(C)(C)C1)c1ccccc1n2CC` here?
The emission maximum was 610 nm.

And the emission maximum (in CC#N)?
The emission maximum was 629 nm.

And the emission maximum (in CCO)?
The emission maximum was 632 nm.

And the emission maximum (in CCOC(C)=O)?
Its emission maximum is 591 nm.

And the emission maximum (in CN(C)C=O)?
Its emission maximum is 635 nm.

And the emission maximum (in CS(C)=O)?
Its emission maximum is 641 nm.

And the emission maximum (in Cc1ccccc1)?
Its emission maximum is 578 nm.

What about the emission maximum (in ClC(Cl)Cl) of the same compound?
Its emission maximum is 608 nm.

And the emission maximum (in ClCCl)?
Its emission maximum is 617 nm.

Which emission maximum (in ClC(Cl)Cl) does the source give for `CC(C)(C)c1ccc(Oc2cc3c4c(cc(Oc5ccc(C(C)(C)C)cc5)c5c6c(Oc7ccc(C(C)(C)C)cc7)cc7c8c(cc(Oc9ccc(C(C)(C)C)cc9)c(c2c45)c86)C(=O)OC7=O)C(=O)OC3=O)cc1` here?
Its emission maximum is 615 nm.

For `Clc1ccccc1N1c2c(sc3ccccc23)Sc2sc3ccccc3c21`, which emission maximum (in ClCCl) is on record?
The emission maximum was 574 nm.
